Measurements taken from patent publication US20110105397A1, “METHOD FOR TREATING HEART FAILURE WITH STRESSCOPIN-LIKE PEPTIDES” (priority 2009, published 2011).
Where a SMILES comes first, the peptide text is derived from it. Where no end group is shown, it is not given here. The star is where a group is joined. Succinimide(1-Et,3-yl) = CCN1C(=O)CC(*)C1=O

Target: T1, human CRHR2 (Homo sapiens, UniProt Q13324)
T1 construct: expressed in transfected cells
T1 sequence (Q13324 1-411): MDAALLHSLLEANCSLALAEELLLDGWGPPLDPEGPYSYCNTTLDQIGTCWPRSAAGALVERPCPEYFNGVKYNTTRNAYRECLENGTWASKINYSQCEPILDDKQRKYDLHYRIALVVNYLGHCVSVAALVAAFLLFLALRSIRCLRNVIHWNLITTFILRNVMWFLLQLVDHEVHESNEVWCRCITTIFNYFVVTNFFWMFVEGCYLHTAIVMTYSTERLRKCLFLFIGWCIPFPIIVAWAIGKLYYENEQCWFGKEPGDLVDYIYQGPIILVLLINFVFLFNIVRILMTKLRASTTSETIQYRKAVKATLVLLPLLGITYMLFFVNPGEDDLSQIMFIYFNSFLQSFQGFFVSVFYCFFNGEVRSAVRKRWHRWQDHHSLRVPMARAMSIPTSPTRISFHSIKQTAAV
Test: cAMP assay, h-CRHR2 transfected SK-N-MC cells
Format: cell-based
Conditions: Table 13; for EC50: cysteine mutation, N-ethylmaleimide capping, pegylation, read-out: pA50 (converted); for Log DR [M]: h-SCP control pA50 minus test compound pA50 within the same assay batch
Method in brief: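 SK-N-MC cells stably expressing human CRHR2 were treated with peptides (1 pM to 1 μM) for 60 min at 37 °C in IBMX-containing medium, with 10 μM forskolin as positive control. Cells were lysed with 0.5 M HCl and cAMP measured by [125I]-cAMP competition flash plate. A50 came from Hill-equation fits, normalised to h-SCP maximum.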

Molecule	EC50 [pM]	Log DR [M]
CC[C@H](C)[C@H](NC(=O)[C@H](CCC(N)=O)NC(=O)[C@H](C)NC(=O)[C@H](CCSC)NC(=O)[C@H](CC(C)C)NC(=O)[C@H](Cc1c[nH]cn1)NC(=O)[C@H](C)NC(=O)[C@H](CC(N)=O)NC(=O)[C@H](C)NC(=O)[C@H](C)NC(=O)[C@H](C)NC(=O)[C@H](CCC(N)=O)NC(=O)[C@H](C)NC(=O)[C@H](CCCNC(=N)N)NC(=O)[C@H](CC(C)C)NC(=O)[C@H](CC(N)=O)NC(=O)[C@H](CCCCN)NC(=O)[C@H](C)NC(=O)[C@H](CCCCN)NC(=O)[C@H](C)NC(=O)[C@@H](NC(=O)[C@H](CSC1CC(=O)N(CC)C1=O)NC(=O)[C@H](Cc1ccccc1)NC(=O)[C@H](CC(C)C)NC(=O)[C@H](CC(C)C)NC(=O)[C@H](CC(N)=O)NC(=O)[C@H](CCSC)NC(=O)[C@@H](NC(=O)[C@H](CC(N)=O)NC(=O)[C@@H](NC(=O)[C@@H]1CCCN1C(=O)[C@@H](NC(=O)[C@H](CC(=O)O)NC(=O)[C@H](CC(C)C)NC(=O)[C@H](CO)NC(=O)[C@H](CC(C)C)NC(=O)[C@@H](NC(=O)[C@H](Cc1ccccc1)NC(=O)[C@H](CCCCN)NC(=O)[C@@H](N)[C@@H](C)O)[C@@H](C)O)C(C)C)[C@@H](C)O)[C@@H](C)CC)[C@@H](C)CC)C(N)=O (some centres unmarked) [SEQ ID NO: 52, TKFTL SLDVP TNIMN LLFC(-NES)I AKAKN LRAQA AANAH LMAQI-NH2] (H-TKFTLSLDVPTNIMNLLFC(Succinimide(1-Et,3-yl))IAKAKNLRAQAAANAHLMAQI-NH2; N-terminus assumed)	380	0.05
CKFTLSLDVPTNIMNLLFNIAKAKNLRAQAAANAHLMAQI-NH2 [SEQ ID NO: 2, CKFTLSLDVPTNIMNLLFNIAKAKNLRAQAAANAHLMAQI-NH2]	1070	0.72
TKFTLSLDVPTCIMNLLFNIAKAKNLRAQAAANAHLMAQI-NH2 [SEQ ID NO: 13, TKFTLSLDVPTCIMNLLFNIAKAKNLRAQAAANAHLMAQI-NH2]	257	−0.01
CC[C@H](C)[C@H](NC(=O)[C@H](CCC(N)=O)NC(=O)[C@H](C)NC(=O)[C@H](CCSC)NC(=O)[C@H](CC(C)C)NC(=O)[C@H](Cc1c[nH]cn1)NC(=O)[C@H](C)NC(=O)[C@H](CC(N)=O)NC(=O)[C@H](C)NC(=O)[C@H](C)NC(=O)[C@H](C)NC(=O)[C@H](CCC(N)=O)NC(=O)[C@H](C)NC(=O)[C@H](CCCNC(=N)N)NC(=O)[C@H](CSC1CC(=O)N(CC)C1=O)NC(=O)[C@H](CC(N)=O)NC(=O)[C@H](CCCCN)NC(=O)[C@H](C)NC(=O)[C@H](CCCCN)NC(=O)[C@H](C)NC(=O)[C@@H](NC(=O)[C@H](CC(N)=O)NC(=O)[C@H](Cc1ccccc1)NC(=O)[C@H](CC(C)C)NC(=O)[C@H](CC(C)C)NC(=O)[C@H](CC(N)=O)NC(=O)[C@H](CCSC)NC(=O)[C@@H](NC(=O)[C@H](CC(N)=O)NC(=O)[C@@H](NC(=O)[C@@H]1CCCN1C(=O)[C@@H](NC(=O)[C@H](CC(=O)O)NC(=O)[C@H](CC(C)C)NC(=O)[C@H](CO)NC(=O)[C@H](CC(C)C)NC(=O)[C@@H](NC(=O)[C@H](Cc1ccccc1)NC(=O)[C@H](CCCCN)NC(=O)[C@@H](N)[C@@H](C)O)[C@@H](C)O)C(C)C)[C@@H](C)O)[C@@H](C)CC)[C@@H](C)CC)C(N)=O (some centres unmarked) [SEQ ID NO: 48, TKFTLSLDVPTNIMNLLFNIAKAKNC(-NES)RAQA AANAH LMAQI-NH2] (H-TKFTLSLDVPTNIMNLLFNIAKAKNC(Succinimide(1-Et,3-yl))RAQAAANAHLMAQI-NH2; N-terminus assumed)	363	0.03
TKFTLSLDVCTNIMNLLFNIAKAKNLRAQAAANAHLMAQI-NH2 [SEQ ID NO: 11, TKFTLSLDVCTNIMNLLFNIAKAKNLRAQAAANAHLMAQI-NH2]	1740	0.82
H-TKFTLSLDVPTNIMNLLFNIAKAKNLRAQAAANAHLMCQI-NH2 [SEQ ID NO: 39, TKFTLSLDVPTNIMNLLFNIAKAKNLRAQAAANAHLMCQI-NH2]	617	0.41
CC[C@H](C)[C@H](NC(=O)[C@H](CCC(N)=O)NC(=O)[C@H](C)NC(=O)[C@H](CCSC)NC(=O)[C@H](CC(C)C)NC(=O)[C@H](Cc1c[nH]cn1)NC(=O)[C@H](C)NC(=O)[C@H](CC(N)=O)NC(=O)[C@H](C)NC(=O)[C@H](C)NC(=O)[C@H](C)NC(=O)[C@H](CCC(N)=O)NC(=O)[C@H](C)NC(=O)[C@H](CCCNC(=N)N)NC(=O)[C@H](CC(C)C)NC(=O)[C@H](CC(N)=O)NC(=O)[C@H](CSC1CC(=O)N(CC)C1=O)NC(=O)[C@H](C)NC(=O)[C@H](CCCCN)NC(=O)[C@H](C)NC(=O)[C@@H](NC(=O)[C@H](CC(N)=O)NC(=O)[C@H](Cc1ccccc1)NC(=O)[C@H](CC(C)C)NC(=O)[C@H](CC(C)C)NC(=O)[C@H](CC(N)=O)NC(=O)[C@H](CCSC)NC(=O)[C@@H](NC(=O)[C@H](CC(N)=O)NC(=O)[C@@H](NC(=O)[C@@H]1CCCN1C(=O)[C@@H](NC(=O)[C@H](CC(=O)O)NC(=O)[C@H](CC(C)C)NC(=O)[C@H](CO)NC(=O)[C@H](CC(C)C)NC(=O)[C@@H](NC(=O)[C@H](Cc1ccccc1)NC(=O)[C@H](CCCCN)NC(=O)[C@@H](N)[C@@H](C)O)[C@@H](C)O)C(C)C)[C@@H](C)O)[C@@H](C)CC)[C@@H](C)CC)C(N)=O (some centres unmarked) [SEQ ID NO: 50, TKFTLSLDVPTNIMNLLFNIAKAC(-NES)N LRAQA AANAH LMAQI-NH2] (H-TKFTLSLDVPTNIMNLLFNIAKAC(Succinimide(1-Et,3-yl))NLRAQAAANAHLMAQI-NH2; N-terminus assumed)	331	−0.01
TKFTLSLDVPTNIMNLLFNIAKCKNLRAQAAANAHLMAQI-NH2 [SEQ ID NO: 24, TKFTLSLDVPTNIMNLLFNIAKCKNLRAQAAANAHLMAQI-NH2]	1150	0.74
TKFTLSLDVPTNIMNLLFNCAKAKNLRAQAAANAHLMAQI-NH2 [SEQ ID NO: 21, TKFTLSLDVPTNIMNLLFNCAKAKNLRAQAAANAHLMAQI-NH2]	1780	0.77
CC[C@H](C)[C@H](NC(=O)[C@H](CCC(N)=O)NC(=O)[C@H](C)NC(=O)[C@H](CCSC)NC(=O)[C@H](CC(C)C)NC(=O)[C@H](Cc1c[nH]cn1)NC(=O)[C@H](C)NC(=O)[C@H](CSC1CC(=O)N(CC)C1=O)NC(=O)[C@H](C)NC(=O)[C@H](C)NC(=O)[C@H](C)NC(=O)[C@H](CCC(N)=O)NC(=O)[C@H](C)NC(=O)[C@H](CCCNC(=N)N)NC(=O)[C@H](CC(C)C)NC(=O)[C@H](CC(N)=O)NC(=O)[C@H](CCCCN)NC(=O)[C@H](C)NC(=O)[C@H](CCCCN)NC(=O)[C@H](C)NC(=O)[C@@H](NC(=O)[C@H](CC(N)=O)NC(=O)[C@H](Cc1ccccc1)NC(=O)[C@H](CC(C)C)NC(=O)[C@H](CC(C)C)NC(=O)[C@H](CC(N)=O)NC(=O)[C@H](CCSC)NC(=O)[C@@H](NC(=O)[C@H](CC(N)=O)NC(=O)[C@@H](NC(=O)[C@@H]1CCCN1C(=O)[C@@H](NC(=O)[C@H](CC(=O)O)NC(=O)[C@H](CC(C)C)NC(=O)[C@H](CO)NC(=O)[C@H](CC(C)C)NC(=O)[C@@H](NC(=O)[C@H](Cc1ccccc1)NC(=O)[C@H](CCCCN)NC(=O)[C@@H](N)[C@@H](C)O)[C@@H](C)O)C(C)C)[C@@H](C)O)[C@@H](C)CC)[C@@H](C)CC)C(N)=O (some centres unmarked) [SEQ ID NO: 44, TKFTLSLDVPTNIMNLLFNIAKAKNLRAQAAAC(-NES)AH LMAQI-NH2] (H-TKFTLSLDVPTNIMNLLFNIAKAKNLRAQAAAC(Succinimide(1-Et,3-yl))AHLMAQI-NH2)	~31600	~1.97
CC[C@H](C)[C@H](NC(=O)[C@H](CCC(N)=O)NC(=O)[C@H](C)NC(=O)[C@H](CCSC)NC(=O)[C@H](CC(C)C)NC(=O)[C@H](Cc1c[nH]cn1)NC(=O)[C@H](C)NC(=O)[C@H](CC(N)=O)NC(=O)[C@H](C)NC(=O)[C@H](CSC1CC(=O)N(CC)C1=O)NC(=O)[C@H](C)NC(=O)[C@H](CCC(N)=O)NC(=O)[C@H](C)NC(=O)[C@H](CCCNC(=N)N)NC(=O)[C@H](CC(C)C)NC(=O)[C@H](CC(N)=O)NC(=O)[C@H](CCCCN)NC(=O)[C@H](C)NC(=O)[C@H](CCCCN)NC(=O)[C@H](C)NC(=O)[C@@H](NC(=O)[C@H](CC(N)=O)NC(=O)[C@H](Cc1ccccc1)NC(=O)[C@H](CC(C)C)NC(=O)[C@H](CC(C)C)NC(=O)[C@H](CC(N)=O)NC(=O)[C@H](CCSC)NC(=O)[C@@H](NC(=O)[C@H](CC(N)=O)NC(=O)[C@@H](NC(=O)[C@@H]1CCCN1C(=O)[C@@H](NC(=O)[C@H](CC(=O)O)NC(=O)[C@H](CC(C)C)NC(=O)[C@H](CO)NC(=O)[C@H](CC(C)C)NC(=O)[C@@H](NC(=O)[C@H](Cc1ccccc1)NC(=O)[C@H](CCCCN)NC(=O)[C@@H](N)[C@@H](C)O)[C@@H](C)O)C(C)C)[C@@H](C)O)[C@@H](C)CC)[C@@H](C)CC)C(N)=O (some centres unmarked) [SEQ ID NO: 46, TKFTLSLDVPTNIMNLLFNIAKAKNLRAQAC(-NES)ANAH LMAQI-NH2] (H-TKFTLSLDVPTNIMNLLFNIAKAKNLRAQAC(Succinimide(1-Et,3-yl))ANAHLMAQI-NH2; N-terminus assumed)	372	0.04
TKFTLSLDVPTNIMNCLFNIAKAKNLRAQAAANAHLMAQI-NH2 [SEQ ID NO: 17, TKFTLSLDVPTNIMNCLFNIAKAKNLRAQAAANAHLMAQI-NH2]	316	0.02
TKFTLSLDVPTNIMNLLFNIAKAKNLRAQAAANAHLCAQI-NH2 [SEQ ID NO: 38, TKFTLSLDVPTNIMNLLFNIAKAKNLRAQAAANAHLCAQI-NH2]	~214000	>2.95
